Laboratory results from patent publication US20250041334A1, “Compositions for Virulence Suppression” (Solventum Intellectual Properties Company, priority 2021, published 2025).

Key:
[1] = tested on: accessory gene regulator (agr) system, agr P2-P3 GFP reporter pJY202; assay: Agr Reporter (Staph Aureus) Assay; assay type: cell-based, Staphylococcus aureus MN8; settings: S. aureus MN8 (pJY202), 1X TY media, RFU normalized to OD600, 24 hours, n=3
Method: Description: The expression of many virulence factors in Staphylococcus aureus is controlled by the quorum sensing accessory gene regulator (agr) system. The plasmid pJY202 is an agr reporter that contains a fusion of the agr P2-P3 region with a gene coding for GFP.
(§1) An S. aureus MN8 (pJY202) colony was picked from a TSA plate and grown overnight in TSB media with 5 µg/mL erythromycin with shaking at 37° C. The culture was centrifuged at 3000×g for 5 minutes and the supernatant was removed. The bacteria were washed once with water.
(§2) Individual growth media solutions for the assay were freshly prepared by adding materials to 1X TY media with 5 μg/mL erythromycin and then adjusting the pH of each solution to about pH 6.0 (using 1M NaOH or 1M HCl). All the growth media solutions were sterile filtered when possible using a 0.2 micrometer filter.
(§3) An aliquot of each growth media solution (200 microliters) was added to the well of a 96-well black, clear-bottom plate. Samples were prepared in triplicate (n=3). The bacteria samples were resuspended in 5 mL of 1X TY media. […] Bacterial growth was measured at 600 nm (OD600) and Agr activity was measured as fluorescent intensity at 485 nm excitation/528 nm emission. Agr activity (relative fluorescence units, RFU) was normalized to bacterial growth (OD600) for each well. The Agr activity was measured at the 24 hour time point.

S. aureus MN8 (pJY202) = assay: Bacterial growth (OD600) in the Agr reporter assay; assay type: cell-based, Staphylococcus aureus MN8; settings: 1X TY media, pH about 6.0, 24 hours
Method: as §1, §2
as §3, with “media. A 3 microliter sample of resuspended S. aureus MN8 (pJY202) was added to each well.” for “media.”

O=P([O-])(O)O.[K+] [50 mM KH2PO4, KH2PO4]
Agr Expression at 24 hours [1]: 86 +/− 6
Growth OD600 at 24 hours (S. aureus MN8 (pJY202)): 1.02
